How the values were obtained:
Format in all cases: cell-based
[1] = system: eDHFR and HaloTag; assay: TMP-Cl induced targeting of Rac1 to plasma membrane (eDHFR/HaloTag); conditions: TMP-Cl 10 μM, 1 h, excess washed off 30 min, HeLa
[2] = system: mEYFP; assay: Regulation of GFP mutant mEYFP localization; conditions: TMP 10 μM, 10 min
Description: Yellow fluorescent protein mEYFP and turquoise fluorescent protein mTurquoise2 are close mutants of the GFP. […] This is an interesting phenomenon, but can also be reasonably explained: Asn146 in GFP, a residue that has a key hydrogen-bonding interaction with the Asn99 residue of GBP, is retained in EGFP and mEYFP, but is mutated to Ile146 in mTurquoise2. […] Therefore, cRGT is an all-rounder, can regulate the proteins of interest to which EGFP, mEYFP and eDHFR are fused, and also has good orthogonality to other fluorescent proteins.

[3] = system: EGFP in HeLa cells; assay: Localization of EGFP to subcellular structures; conditions: TMP 10 μM, 10 min
Protocol: Treatment of living cells with an SNACIP inducer of dimerization for microscopic imaging: Unless otherwise specified, first a DMEM complete medium of the cells is replaced with a phenol red-free imaging medium of the SNACIP inducer of dimerization of the corresponding concentration, and then imaging is performed after incubation for a given period of time. For cRGT, the concentration represents an effective ratio of cRGT; and near-complete dimerization regulation may be achieved without washing off excess cRGT before imaging.
Many cellular processes are regulated by dynamic distribution of proteins in the cell.

[4] = system: Rac1; assay: Rac1 localization to plasma membrane and lamellipodia formation by cRGT
Description: A constitutively active mutant EGFP-NES-Rac1Q61LΔCAAX (G-NES-Rac1 for short, green, cytoplasmic distribution) without the plasma membrane targeting ability and lacking the CAAX-box sequence and mCherry-eDHFR-CAAX (red, plasma membrane localized), being co-expressed in living HeLa cells; treatment of the HeLa cells with cRGT will localize the Rac1 mutant to the functional location of the plasma membrane, which in turn induces a signaling cascade process during lamellipodia formation. Confocal micrographs of representative living HeLa cells co-expressing G-NES-Rac1 and mCherry-eDHFR-CAAX, before treatment with cRGT (Pre), after treatment with 24 μM cRGT, and after addition of TMP at a final concentration of 10 μM. Statistical analysis of colocalization between the EGFP channel and the mCherry channel by PCC were shown. Statistical analysis of cell areas before treatment with cRGT (Pre), after treatment with 24 μM cRGT, and after treatment with TMP at a final concentration of 10 μM was also shown. […] Curve comparison of streak analysis of cells after dimerization induced by cRGT and TMP-Cl. […] Abbreviations in the pictures: mCherry is abbreviated as mChe or R; EGFP is abbreviated as G; mTurquoise2 is abbreviated as mTurq or C; eDHFR is abbreviated as ED; HaloTag is abbreviated as HT. All scales: 10 μm. […]

Compound: COc1cc(Cc2cnc(N)nc2N)cc(OC)c1OCCOCCOCCOCCOCCOCCCCCCCl [TMP-Cl]
- PCC of colocalization [1]: around 0.7

Compound: COc1cc(Cc2cnc(N)nc2N)cc(OC)c1OC [TMP, trimethoprim]
- reversal of mEYFP localization [2]: rapidly reversible
- reversal of Golgi localization [3]: also rapidly reversible
- reversal of mitochondrial localization [3]: rapidly reversible
- reversal of Rac1 localization and morphology change ([4]; 10 μM TMP): completely reversed
- average area of cells after TMP addition ([4]; 10 μM TMP after cRGT): decreased significantly
